Columns and labels:
[1] = target: T1, ITK (Homo sapiens, UniProt Q08881); experiment: ITK inhibitory activity, ADP-Glo + ITK Kinase enzyme system kit (Promega); format: biochemical; details: ITK enzyme 0.4 ng/uL, ATP 25 uM, 15 min preincubation, luminescence, duplicate
T1 construct: purchased Promega
T1 sequence (Q08881 1-620): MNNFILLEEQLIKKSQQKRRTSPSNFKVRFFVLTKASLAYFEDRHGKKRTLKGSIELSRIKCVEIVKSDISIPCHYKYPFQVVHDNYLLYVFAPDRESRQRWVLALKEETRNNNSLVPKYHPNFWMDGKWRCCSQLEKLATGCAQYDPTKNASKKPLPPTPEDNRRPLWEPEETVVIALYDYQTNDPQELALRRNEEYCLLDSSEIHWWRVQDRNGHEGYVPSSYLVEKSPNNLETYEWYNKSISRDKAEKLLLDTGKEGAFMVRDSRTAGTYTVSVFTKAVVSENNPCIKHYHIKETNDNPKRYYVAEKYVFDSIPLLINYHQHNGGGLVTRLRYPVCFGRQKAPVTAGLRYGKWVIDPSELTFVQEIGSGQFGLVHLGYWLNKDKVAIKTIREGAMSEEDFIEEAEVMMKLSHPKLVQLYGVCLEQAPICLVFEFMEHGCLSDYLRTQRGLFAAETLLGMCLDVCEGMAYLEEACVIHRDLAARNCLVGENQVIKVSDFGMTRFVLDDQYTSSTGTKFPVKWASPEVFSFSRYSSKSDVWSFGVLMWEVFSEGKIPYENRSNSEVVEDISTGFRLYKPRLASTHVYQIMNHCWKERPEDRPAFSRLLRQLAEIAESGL
Protocol: (§1) The inhibitory activity against BTK and ITK of the compounds prepared in Examples above were measured as follows.
(§2) The inhibitory activity against ITK was evaluated using ‘ADP-Glo™+ITK Kinase enzyme system’ kit from Promega. […] 5 uL of substrate and 5 uL of ATP prepared at a final concentration of 25 uM were added to all wells of the plate after completion of the reaction, and allowed to react at 30° C. for 1 hour. All wells of the plate after completion of the reaction were treated with 25 uL of ADP-Glo™ reagent and reacted at 30° C. for 40 minutes. Then, 50 uL of the kinase detection buffer was applied to all wells of the plate, and then the light was blocked and reacted at 30° C. for 30 minutes. For the plate for which all reactions were completed, the luminescence was measured and the results were calculated. The evaluation was performed in duplicate. The respective values of negative and positive controls, depending on whether the enzymes were added without treatment of the compound, were determined, and IC50 was calculated based on the values.

[2] = target: T2, BTK (Homo sapiens, UniProt Q06187); experiment: BTK inhibitory activity, ADP-Glo + BTK Kinase enzyme system kit (Promega); format: biochemical; details: BTK enzyme 1 ng/uL, ATP 10 uM, 15 min preincubation, luminescence, duplicate
T2 construct: purchased Promega
T2 sequence (Q06187 whole entry): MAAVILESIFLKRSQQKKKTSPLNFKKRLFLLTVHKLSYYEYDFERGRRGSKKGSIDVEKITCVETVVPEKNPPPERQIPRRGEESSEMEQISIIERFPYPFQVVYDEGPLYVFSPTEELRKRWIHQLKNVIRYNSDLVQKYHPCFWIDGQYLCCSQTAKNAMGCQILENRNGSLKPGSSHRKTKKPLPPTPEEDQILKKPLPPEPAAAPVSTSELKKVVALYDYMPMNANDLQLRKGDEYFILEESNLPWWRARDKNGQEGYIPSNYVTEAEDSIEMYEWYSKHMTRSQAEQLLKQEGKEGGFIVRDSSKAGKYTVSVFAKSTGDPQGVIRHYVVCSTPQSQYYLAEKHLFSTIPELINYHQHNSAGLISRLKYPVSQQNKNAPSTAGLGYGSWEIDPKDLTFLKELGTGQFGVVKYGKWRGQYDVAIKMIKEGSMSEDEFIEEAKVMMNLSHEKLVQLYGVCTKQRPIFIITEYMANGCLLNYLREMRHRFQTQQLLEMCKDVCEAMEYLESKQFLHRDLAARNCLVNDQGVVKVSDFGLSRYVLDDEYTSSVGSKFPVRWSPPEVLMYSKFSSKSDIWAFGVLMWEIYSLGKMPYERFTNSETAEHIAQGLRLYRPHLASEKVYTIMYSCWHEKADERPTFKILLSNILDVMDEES
Protocol: as §1
as §2, with “against BTK” for “against ITK”, “using ‘ADP-Glo™+BTK” for “using ‘ADP-Glo™+ITK”, “of 10” for “of 25”

| IC50 [1] [µM] | IC50 [2] [µM] | SMILES |
| --- | --- | --- |
| 0.0368 | 0.0012 | C=CC(=O)N1CCC[C@@H](n2nc(-c3ccc(C(=O)Nc4ccccc4)cc3)c3c(N)ncc(Br)c32)C1 [Example 24, (R)-4-(1-(1-acryloylpiperidin-3-yl)-4-amino-7-bromo-1H-pyrazolo[4,3-c]pyridin-3-yl)-N-phenyl benzamide] |
| 0.0395 | 0.0015 | C=CC(=O)N1CCC[C@@H](n2nc(-c3ccc(C(=O)Nc4ccccc4)cc3)c3c(N)ncc(I)c32)C1 [Example 25, (R)-4-(1-(1-acryloylpiperidin-3-yl)-4-amino-7-iodo-1H-pyrazolo[4,3-c]pyridin-3-yl)-N-phenyl benzamide] |
| 0.0593 | 0.0027 | C=CC(=O)N1CCC[C@@H](n2nc(-c3ccc(C(=O)Nc4ccccc4)cc3)c3c(N)ncc(-c4cnn(C)c4)c32)C1 [Example 26, (R)-4-(1-(1-acryloylpiperidin-3-yl)-4-amino-7-(1-methyl-1H-pyrazol-4-yl)-1H-pyrazolo[4,3-c]pyridin-3-yl)-N-phenyl benzamide] |
| > 0.5 | 0.008 | C=CC(=O)N1CCC[C@@H](n2nc(-c3ccc(C(=O)Nc4ccccc4)cc3)c3c(N)ncc(CO)c32)C1 [Example 27, (R)-4-(1-(1-acryloylpiperidin-3-yl)-4-amino-7-(hydroxymethyl)-1H-pyrazolo[4,3-c]pyridin-3-yl)-N-phenylbenzamide] |
| 0.181 | 0.0044 | C=CC(=O)N1CCC[C@@H](n2nc(-c3ccc(C(=O)Nc4ccccc4)cc3)c3c(N)ncc(-c4cn[nH]c4)c32)C1 [Example 28, (R)-4-(1-(1-acryloylpiperidin-3-yl)-4-amino-7-(1H-pyrazol-4-yl)-1H-pyrazolo[4,3-c]pyridin-3-yl)-N-phenylbenzamide] |
| 0.556 | 0.0031 | C=CC(=O)N1CCC[C@@H](n2nc(-c3ccc(C(=O)Nc4ccccc4)cc3)c3c(N)ncc(-c4cc[nH]n4)c32)C1 [Example 29, (R)-4-(1-(1-acryloylpiperidin-3-yl)-4-amino-7-(1H-pyrazol-3-yl)-1H-pyrazolo[4,3-c]pyridin-3-yl)-N-phenylbenzamide] |
| 0.49 | 0.003 | C=CC(=O)N1CCC[C@@H](n2nc(-c3ccc(C(=O)Nc4ccccc4)cc3)c3c(N)ncc(-c4cc[nH]n4)c32)C1 [Example 30, (R)-4-(1-(1-acryloylpiperidin-3-yl)-4-amino-7-(1H-pyrazol-5-yl)-1H-pyrazolo[4,3-c]pyridin-3-yl)-N-phenylbenzamide] |
| 0.376 | 0.0159 | C=CC(=O)N1CCC[C@@H](n2nc(-c3ccc(C(=O)Nc4ccccc4)cc3)c3c(N)ncc(-c4ccsc4)c32)C1 [Example 31, (R)-4-(1-(1-acryloylpiperidin-3-yl)-4-amino-7-(thiophen-3-yl)-1H-pyrazolo[4,3-c]pyridin-3-yl)-N-phenylbenzamide] |
| 0.2 | 0.0062 | C=CC(=O)N1CCC[C@@H](n2nc(-c3ccc(C(=O)Nc4ccccc4)cc3)c3c(N)ncc(-c4cnc(C)s4)c32)C1 [Example 32, (R)-4-(1-(1-acryloylpiperidin-3-yl)-4-amino-7-(2-methylthiazol-5-yl)-1H-pyrazolo[4,3-c]pyridin-3-yl)-N-phenylbenzamide] |
| 0.307 | 0.0102 | C=CC(=O)N1CCC[C@@H](n2nc(-c3ccc(C(=O)Nc4ccccc4)cc3)c3c(N)ncc(-c4cnn(C(F)F)c4)c32)C1 [Example 33, (R)-4-(1-(1-acryloylpiperidin-3-yl)-4-amino-7-(1-(difluoromethyl)-1H-pyrazol-4-yl)-1H-pyrazolo[4,3-c]pyridin-3-yl)-N-phenylbenzamide] |
| 0.293 | 0.0023 | C=CC(=O)N1CCC[C@@H](n2nc(-c3ccc(C(=O)Nc4ccccc4)cc3)c3c(N)ncc(-c4cnn(C5CCOCC5)c4)c32)C1 [Example 34, (R)-4-(1-(1-acryloylpiperidin-3-yl)-4-amino-7-(1-(tetrahydro-2H-pyran-4-yl)-1H-pyrazol-4-yl)-1H-pyrazolo[4,3-c]pyridin-3-yl)-N-phenylbenzamide] |
| 0.061 | 0.0019 | C=CC(=O)N1CCC[C@@H](n2nc(-c3ccc(C(=O)Nc4ccccc4)cc3)c3c(N)ncc(-c4cnn(C5CCN(C)CC5)c4)c32)C1 [Example 35, (R)-4-(1-(1-acryloylpiperidin-3-yl)-4-amino-7-(1-(1-methylpiperidin-4-yl)-1H-pyrazol-4-yl)-1H-pyrazolo[4,3-c]pyridin-3-yl)-N-phenylbenzamide] |
| 0.089 | 0.0015 | C=CC(=O)N1CCC[C@@H](n2nc(-c3ccc(C(=O)Nc4ccccc4)cc3)c3c(N)ncc(-c4cnn(CCN(C)C)c4)c32)C1 [Example 36, (R)-4-(1-(1-acryloylpiperidin-3-yl)-4-amino-7-(1-(2-(dimethylamino)ethyl)-1H-pyrazol-4-yl)-1H-pyrazolo[4,3-c]pyridin-3-yl)-N-phenylbenzamide] |
| 0.0913 | 0.003 | C=CC(=O)N1CCC[C@@H](n2nc(-c3ccc(C(=O)Nc4ccccc4)cc3)c3c(N)ncc(-c4cnn(CCN5CCCC5)c4)c32)C1 [Example 37, (R)-4-(1-(1-acryloylpiperidin-3-yl)-4-amino-7-(1-(2-(pyrrolidin-1-yl)ethyl)-1H-pyrazol-4-yl)-1H-pyrazolo[4,3-c]pyridin-3-yl)-N-phenyl benzamide] |
| 0.186 | 0.0026 | C=CC(=O)N1CCC[C@@H](n2nc(-c3ccc(C(=O)Nc4ccccc4)cc3)c3c(N)ncc(-c4cnn(CCN5CCOCC5)c4)c32)C1 [Example 38, (R)-4-(1-(1-acryloylpiperidin-3-yl)-4-amino-7-(1-(2-morpholinoethyl)-1H-pyrazol-4-yl)-1H-pyrazolo[4,3-c]pyridin-3-yl)-N-phenyl benzamide] |
| > 1 | 0.0035 | C=CC(=O)N1CCC[C@H](n2nc(-c3ccc(C(=O)Nc4ccccn4)cc3)c3c(N)nccc32)C1 [Example 39, (S)-4-(1-(1-acryloylpiperidin-3-yl)-4-amino-1H-pyrazolo[4,3-c]pyridin-3-yl)-N-(pyridin-2-yl)benzamide] |
| 0.0064 | 0.0027 | C=CC(=O)N1CCC[C@@H](n2nc(-c3ccc(C(=O)Nc4ccccn4)cc3F)c3c(N)nccc32)C1 [Example 40, (R)-4-(1-(1-acryloylpiperidin-3-yl)-4-amino-1H-pyrazolo[4,3-c]pyridin-3-yl)-3-fluoro-N-(pyridin-2-yl)benzamide] |
| 0.0101 | 0.0015 | C=CC(=O)N1CCC[C@@H](n2nc(-c3ccc(C(=O)Nc4cc(F)ccn4)cc3)c3c(N)nccc32)C1 [Example 41, (R)-4-(1-(1-acryloylpiperidin-3-yl)-4-amino-1H-pyrazolo[4,3-c]pyridin-3-yl)-N-(4-fluoropyridin-2-yl)benzamide] |
| 0.241 | 0.0663 | C=CC(=O)N1CCC[C@@H](n2nc(-c3ccc(C(=O)N(C(=O)C=C)c4cc(F)ccn4)cc3)c3c(N)nccc32)C1 [Example 42, (R)—N-acryloyl-4-(1-(1-acryloylpiperidin-3-yl)-4-amino-1H-pyrazolo[4,3-c]pyridin-3-yl)-N-(4-fluoropyridin-2-yl)benzamide] |
| 0.146 | 0.0025 | C=CC(=O)N1CCC[C@@H](n2nc(-c3ccc(C(=O)Nc4ccccn4)cc3)c3c(N)ncc(Nc4ccccc4)c32)C1 [Example 43, (R)-4-(1-(1-acryloylpiperidin-3-yl)-4-amino-7-(phenylamino)-1H-pyrazolo[4,3-c]pyridin-3-yl)-N-(pyridin-2-yl)benzamide] |
| 0.105 | > 0.00156 | C=CC(=O)N1CCC[C@@H](n2nc(-c3ccc(C(=O)Nc4ccccc4)cc3)c3c(N)ncc(C)c32)C1 [Example 44, (R)-4-(1-(1-acryloylpiperidin-3-yl)-4-amino-7-methyl-1H-pyrazolo[4,3-c]pyridin-3-yl)-N-phenyl benzamide] |

From patent publication US11180496B2 (Daewoong Pharmaceutical Co., Ltd., priority 2017, dated 2021)
